{
  "source": "patent US9452990B2",
  "about": "“Complement pathway modulators and uses thereof” (NOVARTIS AG, priority 2012, dated 2016)",
  "note": "Counter-ions that a name gives are not always drawn.",
  "data": [
    {"biological_target": "human complement factor B (CVF-Bb complex) (Homo sapiens (Human), UniProt P00751)", "assay": "Human Complement Factor B ELISA Assay", "format": "biochemical", "conditions": "not given", "protocol": "(§1) Human Complement Factor B ELISA Assay\n(§2) CVF-Bb complex prepared from purified cobra venom factor (1 μM), recombinant human complement factor B (expressed in drosophila cells and purified using standard methods) and human complement factor D (expressed in E. Coli, refolded and purified using standard methods). CVF-Bb complex at 3 nM concentration was incubated with test compound at various concentrations for 1 hour at room temperature in PBS pH 7.4 containing 10 mM MgCl2 and 0.05% (w/v) CHAPS. Human complement C3 substrate purified from plasma was added to a final concentration of 1 μM. After 1 hour incubation at room temperature, the enzyme reaction was stopped by addition of a cocktail of concentrated pan-protease inhibitors. The product of the reaction, C3a, was quantified by means of an enzyme-linked-immunosorbent assay. IC50 values were calculated from percentage of inhibition of CVF-Bb activity as a function of test compound concentration.", "units": {"IC50": "µM"}, "values": [
      {"smiles": "COc1cc2c(N)nc(N3CCN(C(=O)C[C@@H](N)Cc4ccccc4)C[C@@H]3C)nc2c(F)c1OC", "note": "[Example 62, (S)-3-Amino-1-[(S)-4-(4-amino-8-fluoro-6,7-dimethoxy-quinazolin-2-yl)-3-methyl-piperazin-1-yl]-4-phenyl-butan-1-one hydrochloride]", "IC50": 2.25},
      {"smiles": "COc1cc2c(N)nc(N3CCN(C(=O)C[C@@H](N)Cc4ccncc4)C[C@@H]3C)nc2c(F)c1OC", "note": "[Example 63, (S)-3-Amino-1-[(S)-4-(4-amino-8-fluoro-6,7-dimethoxy-quinazolin-2-yl)-3-methyl-piperazin-1-yl]-4-pyridin-4-yl-butan-1-one hydrochloride]", "IC50": 7.32},
      {"smiles": "CC[C@H]1CN(C(=O)C[C@@H](N)c2ccc(C#N)cc2)CCN1c1nc(N)c2cc(OC)c(OC)c(F)c2n1", "note": "[Example 64, 4-{(R)-1-Amino-3-[(S)-4-(4-amino-8-fluoro-6,7-dimethoxy-quinazolin-2-yl)-3-ethyl-piperazin-1-yl]-3-oxo-propyl}-benzonitrile hydrochloride]", "IC50": 0.007},
      {"smiles": "CC[C@H]1CN(C(=O)C[C@@H](N)c2ccc(F)cc2)CCN1c1nc(N)c2cc(OC)c(OC)c(F)c2n1", "note": "[Example 65, (R)-3-Amino-1-[(S)-4-(4-amino-8-fluoro-6,7-dimethoxy-quinazolin-2-yl)-3-ethyl-piperazin-1-yl]-3-(4-fluoro-phenyl)-propan-1-one hydrochloride]", "IC50": 0.03},
      {"smiles": "CC[C@H]1CN(C(=O)C[C@@H](N)c2ccc(C(F)(F)F)cc2)CCN1c1nc(N)c2cc(OC)c(OC)c(F)c2n1", "note": "[Example 66, (R)-3-Amino-1-[(S)-4-(4-amino-8-fluoro-6,7-dimethoxy-quinazolin-2-yl)-3-ethyl-piperazin-1-yl]-3-(4-trifluoromethyl-phenyl)-propan-1-one hydrochloride]", "IC50": 0.09},
      {"smiles": "CCC[C@H]1CN(C(=O)C[C@@H](N)c2ccc(C#N)cc2)CCN1c1nc(N)c2cc(OC)c(OC)c(F)c2n1", "note": "[Example 67, 4-{(R)-1-Amino-3-[(S)-4-(4-amino-8-fluoro-6,7-dimethoxy-quinazolin-2-yl)-3-propyl-piperazin-1-yl]-3-oxo-propyl}-benzonitrile hydrochloride]", "IC50": 0.01},
      {"smiles": "CCC[C@H]1CN(C(=O)C[C@@H](N)c2ccc(C(F)(F)F)cc2)CCN1c1nc(N)c2cc(OC)c(OC)c(F)c2n1", "note": "[Example 68, (R)-3-Amino-1-[(S)-4-(4-amino-8-fluoro-6,7-dimethoxy-quinazolin-2-yl)-3-propyl-piperazin-1-yl]-3-(4-trifluoromethyl-phenyl)-propan-1-one hydrochloride]", "IC50": 0.06},
      {"smiles": "COc1cc2c(N)nc(N3CCN(C(=O)C[C@@H](N)c4ccc(F)cc4)C[C@@H]3c3ccccc3)nc2c(F)c1OC", "note": "[Example 69, (R)-3-Amino-1-[(S)-4-(4-amino-8-fluoro-6,7-dimethoxy-quinazolin-2-yl)-3-phenyl-piperazin-1-yl]-3-(4-fluoro-phenyl)-propan-1-one hydrochloride]", "IC50": 0.007}
    ]},
    {"biological_target": "human complement factor B (CVF-Bb complex) (Homo sapiens (Human), UniProt P00751)", "assay": "Human Complement Factor B ELISA Assay", "format": "biochemical", "conditions": "CVF-Bb complex 3 nM, 1 hour preincubation with compound at room temperature, human C3 substrate 1 μM, C3a quantified by ELISA; read-out: Factor B IC50", "protocol": "as §1, §2", "units": {"IC50": "µM"}, "values": [
      {"smiles": "COCCOc1c(OC)cc2c(N)nc(N3CCN(C(=O)C[C@@H](N)c4ccc(C#N)cc4)CC3)nc2c1F", "note": "[Example 70, 4-((R)-1-Amino-3-{4-[4-amino-8-fluoro-6-methoxy-7-(2-methoxy-ethoxy)-quinazolin-2-yl]-piperazin-1-yl}-3-oxo-propyl)benzonitrile]", "IC50": 0.11},
      {"smiles": "COCCOc1c(OC)cc2c(N)nc(N3CCN(C(=O)C[C@@H](N)c4ccc(C#N)cc4)C[C@@H]3C)nc2c1F", "note": "[Example 71]", "IC50": 0.07},
      {"smiles": "CN[C@H](CC(=O)N1CCN(c2nc(N)c3cc(OC)c(OC)c(F)c3n2)CC1)c1ccccc1", "note": "[Example 72, (R)-1-[4-(4-Amino-8-fluoro-6,7-dimethoxy-quinazolin-2-yl)-piperazin-1-yl]-3-methylamino-3-phenyl-propan-1-one]", "IC50": 0.23},
      {"smiles": "COc1cc2c(N)nc(N3C[C@@H](C)N(C(=O)C[C@@H](N)c4ccccc4)C[C@@H]3C)nc2c(F)c1OC", "note": "[Example 73, (R)-3-Amino-1-[(2R,5S)-4-(4-amino-8-fluoro-6,7-dimethoxy-quinazolin-2-yl)-2,5-dimethyl-piperazin-1-yl]-3-phenyl-propan-1-one]", "IC50": 0.06}
    ]}
  ]
}
